Publication PMC2915818 (2010)

Columns and labels:
[1] = tested on: HT24 (DNA, G4) TAGGGTTAGGGTTAGGGTTAGGGT; assay: fluorescence titration, Equispec fit; details: 185 mM K+, 185 mM Na+ (as KCl, NaCl); sodium phosphate, 1 mM EDTA, pH 7, 25 °C; excitation 252 nm; 0.2 μM compound
[2] = tested on: cmyc (DNA, G4) GGGGAGGGTGGGGAGGGTGGGGAAGGTGGGG; assay: fluorescence titration, Equispec fit; details: 185 mM K+, 185 mM Na+ (as KCl, NaCl); sodium phosphate, 1 mM EDTA, pH 7, 25 °C; excitation 252 nm; 0.2 μM compound
[3] = tested on: 24bcl (DNA, G4) CGGGCGCGGGAGGAAGGGGGCGGG; assay: fluorescence titration, Equispec fit; details: 185 mM K+, 185 mM Na+ (as KCl, NaCl); sodium phosphate, 1 mM EDTA, pH 7, 25 °C; excitation 252 nm; 0.2 μM compound
[4] = tested on: TC triplex (DNA, triplex) CCTCCTCTCTTTCCCTTTTTCTTTCTCTCCTCC/GAAAGAGAGGAGG; assay: competitive dialysis; details: 185 mM KCl, 185 mM NaCl; sodium phosphate, 1 mM EDTA, pH 7, room temperature; 50 μM DNA, 1 μM compound
[5] = tested on: Ds26 (DNA, duplex) CAATCGGATCGAATTCGATCCGATTG; assay: competitive dialysis; details: 185 mM KCl, 185 mM NaCl; sodium phosphate, 1 mM EDTA, pH 7, room temperature; 50 μM DNA, 1 μM compound
[6] = tested on: Dickerson (DNA, duplex) CGCGAATTCGCG; assay: fluorescence titration; details: 185 mM K+, 185 mM Na+ (as KCl, NaCl); sodium phosphate, 1 mM EDTA, pH 7, 25 °C; up to 10 μM DNA, 0.2 μM compound
[7] = tested on: 24bcl (DNA, G4) CGGGCGCGGGAGGAAGGGGGCGGG; assay: competitive dialysis; details: 185 mM KCl, 185 mM NaCl; sodium phosphate, 1 mM EDTA, pH 7, room temperature; 50 μM DNA, 1 μM compound
[8] = tested on: cmyc (DNA, G4) GGGGAGGGTGGGGAGGGTGGGGAAGGTGGGG; assay: competitive dialysis; details: 185 mM KCl, 185 mM NaCl; sodium phosphate, 1 mM EDTA, pH 7, room temperature; 50 μM DNA, 1 μM compound

Structure (SMILES)	log K [1]	log K [2]	log K [3]	binding [4]	binding [5]	binding [6]	binding [7]	binding [8]
CC(=O)NCCN(CC(=O)NCCN(CC(=O)NCCCCCCO)C(=O)CNC(=O)c1c2ccccc2nc2ccccc12)C(=O)CNC(=O)c1c2ccccc2nc2ccccc12	4.6 ± 0.5	4.9 ± 0.2	5.1 ± 0.1					
CC(=O)NCCN(CC(=O)NCCN(CC(=O)NCCCCCCOC(=O)CCC(=O)N(C)CC(N)=O)C(=O)CNC(=O)c1c2ccccc2nc2ccccc12)C(=O)CNC(=O)c1c2ccccc2nc2ccccc12	4.9 ± 0.4	5.5 ± 0.3	6.8 ± 0.5	weak	no	no		
CC(=O)NCCN(CC(=O)NCCN(CC(=O)NCCN(CC(=O)NCCCCCCO)C(=O)CNC(=O)c1c2ccccc2nc2ccccc12)C(=O)CNC(=O)c1c2ccccc2nc2ccccc12)C(=O)CNC(=O)c1c2ccccc2nc2ccccc12		5.3 ± 0.2					yes	
CC(=O)NCCN(CC(=O)NCCN(CC(=O)NCCN(CC(=O)NCCCCCCOC(=O)CCC(=O)N(C)CC(N)=O)C(=O)CNC(=O)c1c2ccccc2nc2ccccc12)C(=O)CNC(=O)c1c2ccccc2nc2ccccc12)C(=O)CNC(=O)c1c2ccccc2nc2ccccc12	5.3 ± 0.3	4.8 ± 0.5	5.3 ± 0.2					
O=C(O)CNC(=O)c1c2ccccc2nc2ccccc12					weak		yes	yes
O=C(O)c1c2ccccc2nc2ccccc12					yes			
